Structures can show the parent of a compound that is named as a salt.
Experiments:
[1] = test system: HIV; conditions: cited from earlier work
[2] = molecular target: T1, viral reverse transcriptase (Human immunodeficiency virus type 1 group M subtype B, UniProt P04585); test: Viral reverse transcriptase inhibition, cell free assay; type: biochemical, human immunodeficiency virus (HIV-1); conditions: read-out: RT % INHIBITION (100 μM), 100 μM; poly rC or poly rG template
T1 construct: Viral reverse transcriptase is found in extracts from bacterial clones; made in house; host or cells: Escherichia coli (extracts of bacterial clones, by the procedure of Larder et al., EMBO J. 6:3133-3137, 1987)
Procedure, shortened: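 E. coli-expressed HIV-1 RT extract was incubated with inhibitor, 10 μM [35S]-dNTP, poly rC/rG template and oligo dG/dT primer in Tris pH 8.3 with Mg2+ at 37 °C (30 min; 15 min in an alternative version). DNA incorporation was counted on filters and reported as % inhibition (at 100 μM in one version) and IC50.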

[3] = test system: HIV-1 (MT-2 cells infected with HIV-1); test: Inhibition of HIV-induced syncytia formation in MT-2 cells; type: cell-based; conditions: Human immunodeficiency virus 1, MT2; MT-2 cells infected with HIV-1; read-out: INHIBITION OF SYNCYTIA FORMATION ED50
Excerpt: This test is described in Quantitative Infectivity Assay for HIV-1 and -2., Nature 332: 469-470, 1988 as well as in AIDS RESEARCH AND HUMAN RETROVIRUSES, Vol. 4, No. 6, pages 449-455 (1988), Mary Ann Liebent, Inc., Publishers; in an article entitled "Nucleotide Dimers Suppress HIV Expression In VITRO". The results (IC50 means the concentration, in μM of drug, required to inhibit syncytia formation to the extent of 50%) of various assay(s) are combined and reported as % inhibition and IC50 (calculated).
ability of various compounds used to inhibit HIVinduced syncytia formatio
in a tissue culture assay using MT2 cells infected with HIV1. This test i
described by Nara et al., Quantitative infectivity assay for HIV1 and 2,
Nature 332, 469-470 (1988), as well as in AIDS RESEARCH AND HUMAN
RETROVIRUSES, vol. 4, No. 6, pages 449-455 (1988), Mary Ann Liebent, Inc.
Publishers, and in an article by Mariano Busso, et al., entitled
"Nucleotide Dimers Suppress HIV Expression In Vitro". The results
(ED50 means the concentration, in μM of drug, required to inhibit
syncytia formation to the extent of 50%) of various assay are combined an
reported in Table I. In comparison, the known commercial compound, AZT,
percent reductions in syncytia formation at concentrations of
approximately 1 μM and 0.5 μM, respectively.

[4] = test system: HIV in primary human peripheral blood lymphocytes; test: Primary PBL assay: inhibition of viral replication (p24 & RNA); type: cell-based; conditions: Human immunodeficiency virus 1, Lymphocyte, primary human lymphocytes infected with HIV, days three and four, read-out: PBL INHIBITION OF VIRAL REPLICATION (p24 & RNA) ED50
Procedure, shortened: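 Mitogen-stimulated human PBLs infected with standardized HIV, cultured with drug 4 days at one tenth of the antiproliferative half-maximal concentration. Secreted p24 by capture-ELISA and total HIV RNA by hybridization on days 3 and 4, with viability in parallel; ED50 is the concentration giving 50% reduction in p24.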

| Compound | activity against HIV in vitro [1] | inhibition at 100 µM [2] | IC50 [3] | EC50 [4] |
| --- | --- | --- | --- | --- |
| O=c1[nH]cnc2c1ncn2[C@H]1CC[C@@H](CO)O1 [ddI] | potent activity | – | – | – |
| CCNc1ccccc1N1CCN(C(=O)c2cc3cc(OC)ccc3[nH]2)CC1 [Example 28, 1-[5-Methoxyindolyl-2-carbonyl]-4-[2-(ethylamino)phenyl]piperazine] | – | 70% | > 26000 nM | 100 to 1000 nM |
| CC(C)Nc1cccnc1N1CCN(Cc2cc3cc(F)ccc3[nH]2)CC1 [Example 32, 1-[5-Fluoroindolyl-2-methyl]-4-[3-(1-methylethylamino)-2-pyridinyl]piperazine] | – | 96% | < 300 nM | 3 to 10 nM |
| CCNc1cccnc1N1CCN(C(=O)c2cc3cc(CC)ccc3[nH]2)CC1 [Example 24, 1-[5-Ethylindolyl-2-carbonyl]-4-[3-(ethylamino)-2-pyridinyl]piperazine] | – | 65 to 70% | 16000 nM | 10 to 100 nM |
| CC(C)Nc1cccnc1N1CCN(C(=O)c2cc3cc(N=CN(C)C)ccc3[nH]2)CC1 [Example 85, 1-[(5N-(N',N'-Dimethylaminomethylene)aminoindolyl)carbonyl]-4-(3(1-methylethylamino)-2-pyridinyl)piperazine, methane sulfonate] | – | 93 to 96% | < 200 nM | 1 to 10 nM |
| COc1ccc2[nH]c(C(=O)N3CCN(c4ncccc4NC(C)C)CC3)cc2c1 [Example 26, 1-[5-Methoxyindolyl-2-carbonyl]-4-[3-(1-methylethylamino)-2-pyridinyl]piperazine] | – | 97% | 300 to 500 nM | 3 nM |
| CCNc1cccnc1N1CCN(Cc2cc(C)c(O)c(C)c2)CC1 [Example 4, 1-[4-Hydroxy-3,5-dimethylbenzyl]-4-[3-(ethylamino)-2-pyridinyl]piperazine] | – | 58% | 2500 nM | ≥ 10000 nM |
| CC(C)Nc1cccnc1N1CCN(C(=O)c2cc3ccccc3[nH]2)CC1 [Example 17, 1-[Indolyl-2-carbonyl]-4-[3-(1-methylethylamino)-2-pyridinyl]piperazine] | – | 96% | ≤ 300 nM | ≤ 10 nM |
| CCNc1cccnc1N1CCN(C(=O)c2ccc3ccccc3c2)CC1 [Example 66, 1-[Naphthyl-2-carbonyl]-4-[3-(ethylamino)-2-pyridinyl]-piperazine] | – | 68 to 79% | > 280000 nM | 1000 to 10000 nM |
| CC(C)Nc1cccnc1N1CCN(C(=O)c2cc3cc(F)ccc3[nH]2)CC1 [Example 25, 1-[5-Fluoroindolyl-2-carbonyl]-4-[3-(1-methylethylamino)-2-pyridinyl]piperazine] | – | 96% | 300 to 400 nM | 3 nM |
| CCNc1cccnc1N1CCN(C(=O)c2cc3c(C)c(OC)c(C)c(C)c3[nH]2)CC1 [Example 42, 1-[5-Methoxy-4,6,7-trimethylindolyl-2-carbonyl]-4-[3-(ethylamino)-2-pyridinyl]piperazine] | – | 63% | 2000 nM | 10000 nM |
| CCNc1cccnc1N1CCN(Cc2cc(C)c(OC)c(C)c2)CC1 [Example 3, 1-[4-Methoxy-3,5-dimethylbenzyl]-4-[3-(ethylamino)-2-pyridinyl]piperazine] | – | 70 to 76% | 1000 to 2500 nM | 1000 nM |
| Nc1ccn([C@H]2CC[C@@H](CO)O2)c(=O)n1 [ddC] | potent activity | – | – | – |
| CC(C)(C)Nc1cccnc1N1CCN(C(=O)c2cc3cc(F)ccc3[nH]2)CC1 [Example 46, 1-[5-Fluoroindolyl-2-carbonyl]-4-[3-(1,1-dimethylethylamino)-2-pyridinyl]piperazine hydrochloride salt] | – | 89% | 1000 nM | 1 to 10 nM |
| CCOc1ccccc1N1CCN(C(=O)c2cc3cc(OC)ccc3[nH]2)CC1 [Example 12, 1-[5-Methoxyindolyl-2-carbonyl]-4-[2-ethoxyphenyl]piperazine] | – | 64 to 80% | < 300 nM | 5000 to 10000 nM |
| CCNc1cccnc1N1CCN(C(=O)c2cc3ccccc3o2)CC1 [Example 27, 1[Benzofuroyl-2-carbonyl]-4-[3-(ethylamino) -2-pyridinyl]piperazine] | – | 37 to 57% | > 1 nM | 10000 nM |

From US5563142A, “Diaromatic substituted compounds as anti-HIV-1 agents” (The Upjohn Company, priority 1994, dated 1996)
